Tests used:
UCHL1 = molecular target: T1, UCHL1 (Homo sapiens, UniProt P09936); experiment: Eosin Y visible light-mediated labelling of recombinant UCHL1; assay type: biochemical; conditions: UCHL1 2 μg, probe 1 3 μg; 10 W white light from 50 cm vs UV 365 nm
T1 sequence (P09936 1-223): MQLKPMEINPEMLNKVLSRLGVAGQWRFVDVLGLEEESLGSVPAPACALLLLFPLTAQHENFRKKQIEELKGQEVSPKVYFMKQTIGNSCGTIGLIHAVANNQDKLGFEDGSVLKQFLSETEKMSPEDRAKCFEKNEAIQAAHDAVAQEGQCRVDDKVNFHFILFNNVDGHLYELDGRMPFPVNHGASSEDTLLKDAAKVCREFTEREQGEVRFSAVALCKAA
Protocol: (§1) FIG. 18—comparative analysis of labelling using Eosin Y as the initiator relative to DPAP and MAP for recombinant enzymes OTUB1 (2 μg) and UCHL1 (2 μg), lanes 2-4 and 5-7, with probe 1 (3 μg) visualised by anti-HA western blot. Samples were preincubated for 90 min at 37° C. Lanes 3 and 6 were degassed for 2 min using N2 before the addition of DPAP and MAP or Eosin Y to the indicated samples. A further incubation was carried out for 10 min at 37° C. while lanes 3 and 6 were exposed to UV light (365 nm) and lanes 4, and 7 were exposed to a 10 W white light lamp from 50 cm.
Once optimised, a comparative labelling was carried out between these optimised Eosin Y labelling conditions versus the conditions optimised for DPAP and MAP labelling (FIG. 18). At this point to check the generality of the method, a further DUB, UCHL1 was tested alongside OTUB1.
Probe 1 ([…]) was incubated with OTUB1 (0.2 μL, 13.78 μg/μL, in storage buffer) or UCHL1 (3.3 μL, 0.9 μg/μL, in storage buffer). The final volume of the labelling was adjusted to 30 μL with homogenisation buffer containing TCEP (1 mM). A stock solution of Eosin Y (0.29 mM in DMSO—homogenisation buffer, 4:1) was prepared fresh before use and protected from light. The reaction was preincubated for 90 min at 37° C. with gentle shaking before the addition of Eosin Y (0.5 μL of stock for recombinant enzyme labelling, final conc.=5 μM). […]

recombinant DUB OTUB1 = recombinant DUB OTUB1 (Homo sapiens, UniProt Q96FW1); experiment: Eosin Y visible light-mediated labelling of recombinant OTUB1; assay type: biochemical; parameters: His; conditions: OTUB1 2 μg, probe 1 3 μg; 10 W white light from 50 cm vs UV 365 nm
Protocol: FIG. 13—labelling of OTUB1 (2 μg) with probe 1 (3 μg) visualised by anti-HA western blot. Samples were preincubated for 90 min at 37° C. before the addition of Eosin Y. Samples were incubated for a further 10 min at 37° C. in the dark (lane 3) in ambient light (lane 4) or exposed to a 10 W white light lamp from 10 cm (lane 5).
as §1
Firstly, the reactivity of the probe with the recombinant DUB OTUB1 was assessed using Eosin Y as the sole photoinitiator (FIG. 13). Triethanolamine, or similar coinitiators, could be used in combination with Eosin Y. The reaction was initiated using ambient light or a 10 W white light bulb. As a control, an equivalent sample was kept in darkness for the duration of the experiment. […]

[1] = tested on: DUBs in HEK 293T cell lysate; experiment: Thiol-ene labelling in HEK293T cell lysate (anti-HA western blot); assay type: biochemical, H. sapiens; conditions: NEM 10 mM (FIG. 3A lane 8 vs 4)
Protocol: Controls included using NEM (10 mM), the Ub75CH2CH2Br probe (1 μg) and a labelling excluding initiators. (B) HEK 293T cell lysate (50 μg) was pre-incubated for varying periods of time with probe 1 (1 μg) before exposure to UV light (365 nm) for 2 min.
After confirming reactivity with a recombinant DUB, probe 1 was tested in HEK293T cell lysate using conditions analogous to those described for the recombinant enzyme labelling (FIG. 3). […] Exposure time to UV light was optimised, with conditions tested from […] (FIG. 3A, lanes 2-7). No labelling is observed at the 0 minute time point (FIG. 3A, lane 2). There is no discernible difference between the 1 minute and 10 minute timepoints (FIG. 3A, lanes 3 and 4). […] Two further control experiments were performed to validate the need for free thiols and to compare to an existing probe. […] Covalent bond formation therefore requires free cysteine residues. A labelling reaction with the known HA-Ub75CH2CH2Br probe was subjected to the same conditions as the thiol-ene labelling to confirm there was no degradation of the lysate under these conditions (FIG. 3A, lanes 9 and 10).
It was next examined how the pre-incubation period affected the labelling pattern (FIG. 3B, lanes 1-5). It was reasoned that prior to activation, a binding equilibrium must be established between the probe and target enzymes to yield the rapid labelling observed. […]

[2] = tested on: DUBs in HEK293T cell lysate; experiment: PR-619 equilibrium disruption assay; assay type: biochemical, H. sapiens; conditions: probe 1 pre-incubated with lysate 90 min, PR-619 titrated 0-100 μM, further 30 min, UV 2 min
Protocol: (§2) (A) HEK 293T cell lysate (50 μg) was pre-incubated for 90 min with increasing concentrations of PR-619 before being labelled with the probe 1 (1 μg). (B) HEK 293T cell lysate (50 μg) was pre-incubated with probe 1 (1 μg) for 90 min before PR-619 was added at increasing concentrations. (C) HEK 293T cell lysate (50 μg) was incubated with Ub75CH2CH2Br and PR 619 (100 μM) was added to one sample. All samples were exposed to UV light (365 nm) for 2 min.
(§3) It was next set out to test the modulation of labelling using the known pan DUB inhibitor, PR-619 (X. Tian, N. S. Isamiddinova, R. J. Peroutka, S. J. Goldenberg, M. R. Mattern, B. Nicholson and C. Leach, Assay Drug Dev Technol, 2011, 9, 165-173). PR-619 was incubated with cell lysate for 30 min prior to the addition of probe 1 and the labelling was then carried out under optimised conditions with a 90 min pre-incubation time. […] This implies specificity of probe 1 towards DUBs. […] PR-619 was titrated into the mixture at increasing concentrations and incubated for a further 30 min before the addition of initiators and exposure to UV light (FIG. 4B). A parallel experiment was set up with the Ub75CH2CH2Br probe for comparison (FIG. 4C). […] (FIG. 4C, lanes 2 and 3). To check the integrity of the probe and cell lysate under these conditions a silver stain of the samples was also performed (FIG. 9). […]

[3] = tested on: DUBs in HEK293T cell lysate; experiment: PR-619 pre-incubation assay; assay type: biochemical, H. sapiens; conditions: lysate pre-incubated with increasing concentrations of PR-619, then probe 1 (1 μg) 90 min, UV 2 min
Protocol: as §2, §3

Sequence of recombinant DUB OTUB1 (Q96FW1 whole entry): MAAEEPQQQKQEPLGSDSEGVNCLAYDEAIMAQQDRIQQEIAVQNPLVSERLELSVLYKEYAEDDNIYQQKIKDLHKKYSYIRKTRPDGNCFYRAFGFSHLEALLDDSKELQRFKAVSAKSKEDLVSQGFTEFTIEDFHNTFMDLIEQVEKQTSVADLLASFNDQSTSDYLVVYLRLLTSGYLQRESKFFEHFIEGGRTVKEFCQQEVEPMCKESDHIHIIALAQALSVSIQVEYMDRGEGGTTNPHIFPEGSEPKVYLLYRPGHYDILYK

Compound: O=C([O-])c1ccccc1-c1c2cc(Br)c(=O)c(Br)c-2oc2c(Br)c([O-])c(Br)cc12.[Na+].[Na+] [Eosin Y, reference compound]
- probe capture with Eosin Y relative to DPAP and MAP (UCHL1): probe capture was comparable
- probe capture with Eosin Y relative to DPAP and MAP (recombinant DUB OTUB1): probe capture was comparable

Compound: CCN1C(=O)C=CC1=O [NEM, N-ethylmaleimide, reference compound]
- effect on probe 1 labelling [1]: inhibited labelling

Compound: N#CSc1cc(SC#N)c(N)nc1N [PR-619]
- effect on probe 1 labelling, inhibitor added after binding equilibrium [2]: abrogates the labelling in a concentration dependent manner
- effect on probe 1 labelling intensity, inhibitor before probe [3]: concentration-dependent reduction in labelling intensity

— US20210292736A1, “PROTEIN LABELLING” (The Provost, Fellows, Scholars and other Members of Board …, priority 2020, published 2021)
